Measured values taken from ChEMBL document CHEMBL1144117, “Two new cytotoxic carbonimidic dichlorides from the nudibranch Reticulidia fungia” (J Nat Prod, 1999).
Values after ≈ are worked out from the molar mass of the structure shown.

How the values were obtained:
L1210 = assay: Cytotoxicity against mouse L1210 cells after 72 hrs by MTT assay; assay type: functional, cell-based; conditions: L1210, 72 h
KB = assay: Cytotoxicity against human KB cells after 72 hrs by MTT assay; assay type: functional, cell-based

Row | Structure (SMILES) | IC50 (L1210) | IC50 (KB)
1 | CC1(C)[C@@H](Cl)[C@H](O)C[C@]2(C)C=C(/C=C/N=C(Cl)Cl)CC[C@@H]12 [RETICULIDIN A] | 0.59 µg/mL (≈ 1.68 µM) | 0.41 µg/mL (≈ 1.17 µM)
2 | CC1(C)[C@@H](Cl)[C@@H](O)C[C@]2(C)CC(/C=C/N=C(Cl)Cl)=CC[C@@H]12 [RETICULIDIN B] | 0.11 µg/mL (≈ 0.314 µM) | 0.42 µg/mL (≈ 1.2 µM)
